According to ChEMBL document CHEMBL5034037, “Synthesis, Characterization, and Preclinical Evaluation of a Small-Molecule Prostate-Specific Membrane Antigen-Targeted Monomethyl Auristatin E Conjugate” (J Med Chem, 2021):
Where “and” joins values, the source holds several entries; their conditions need not be identical. Identical values can stand only once. Calls of active or inactive are those of the source. The rule behind the calls is not given here. *1 amine or outer side, *2 acyl side, *3 side chain or, on linkers, in order; H or OH if unused. Where a SMILES comes first, the peptide text is derived from it. [ ]: non-standard residue; d: D form. The star is where a group is joined. GluureaLys(ε-3-ClBenzyl) = O=C(O)CC[C@H](NC(=O)N[C@@H](CCCCN(Cc1cccc(Cl)c1)*)C(=O)O)C(=O)O; Dolaproine = CO[C@@H]([C@@H]1CCCN1)[C@@H](C)C(=O)O; Dil = CC[C@H](C)[C@H](NC)[C@@H](CC(=O)O)OC; X1 = O=C(CCCc1cn(CCCN[*:1])nn1)[*:2]; PABC = O=C(OCc1ccc(N[*:1])cc1)[*:2]; X2 = C[C@@H](N*)[C@@H](O)c1ccccc1; Cit = NC(=O)NCCC[C@H](N)C(=O)O; Suc = O=C(CCC(=O)[*:2])[*:1]; NMeV = CN[C@H](C(=O)O)C(C)C; Ahx = NCCCCCC(=O)O

Key:
[1] = Acute toxicity in iv dosed Wistar rat assessed as maximum tolerated dose; assay type: organism-based; settings: in vivo, read-out: MNTD
[2] = Initial plasma concentration in rabbit plasma at 0.81 mg/kg, iv; assay type: ADME, organism-based, Oryctolagus cuniculus
[3] = Stability of compound in pH 5.5 assessed as hydrolysis measured within 96 hrs; assay type: physicochemical; settings: buffer, pH 5.5, 96 h
[4] = Toxicity in rat assessed as morphological changes in mucosa of trachea at 150 to 225 microg/kg, iv; assay type: tissue-based; settings: in vivo, dose 150-225 µg/kg
[5] = Stability of compound in pH 7.4 assessed as hydrolysis measured within 96 hrs; assay type: physicochemical; settings: buffer, pH 7.4, 96 h
[6] = Toxicity in rat assessed as morphological changes in urinary bladder at 150 to 225 microg/kg, iv; settings: in vivo, dose 150-225 µg/kg
Salmonella typhimurium [7] = experiment: Mutagenecity in Salmonella typhimurium TA97 in presence of metabolic activation system at 1 ug/ml by Ames test; assay type: toxicity, organism-based; settings: salmonella enterica subsp. enterica serovar typhimurium; dose 1 µg/ml
[8] = Ratio of AUC (t to infinity) to AUC (0 to infinity) in rat at 1.5 mg/kg, iv; assay type: ADME, organism-based; settings: in vivo
PC-3 = experiment: Induction morphological changes in human PC-3 cells assessed as decrease in cell membrane stiffness measured upto 1 hr; assay type: functional, cell-based; settings: time hrs <=1
[9] = Toxicity in mouse assessed as change in body weight at 0.3 mg/kg, iv measured after 20 days; assay type: organism-based; settings: in vivo, 480 h, time 20 day
[10] = Toxicity in rat assessed as morphological changes in adrenal medulla at 150 to 225 microg/kg, iv; settings: in vivo, dose 150-225 µg/kg
Salmonella typhimurium [11] = experiment: Mutagenecity in Salmonella typhimurium TA100 in presence of metabolic activation system at 100 ug/ml by Ames test; assay type: toxicity, organism-based; settings: salmonella enterica subsp. enterica serovar typhimurium; dose 100 µg/ml
[12] = AUC (0 to infinity) in Wistar rat at 1.5 mg/kg, iv; assay type: ADME, organism-based; parameters: time infinity, route intravenous, dose 1.5 mg/kg; settings: in vivo
Cytochrome P450 2C8 = target: T1, Cytochrome P450 2C8 (Homo sapiens, UniProt P10632); experiment: Inhibition of CYP2C8 in human liver microsome using paclitaxel as substrate; assay type: ADME, microsomes
T1 sequence (P10632 whole entry): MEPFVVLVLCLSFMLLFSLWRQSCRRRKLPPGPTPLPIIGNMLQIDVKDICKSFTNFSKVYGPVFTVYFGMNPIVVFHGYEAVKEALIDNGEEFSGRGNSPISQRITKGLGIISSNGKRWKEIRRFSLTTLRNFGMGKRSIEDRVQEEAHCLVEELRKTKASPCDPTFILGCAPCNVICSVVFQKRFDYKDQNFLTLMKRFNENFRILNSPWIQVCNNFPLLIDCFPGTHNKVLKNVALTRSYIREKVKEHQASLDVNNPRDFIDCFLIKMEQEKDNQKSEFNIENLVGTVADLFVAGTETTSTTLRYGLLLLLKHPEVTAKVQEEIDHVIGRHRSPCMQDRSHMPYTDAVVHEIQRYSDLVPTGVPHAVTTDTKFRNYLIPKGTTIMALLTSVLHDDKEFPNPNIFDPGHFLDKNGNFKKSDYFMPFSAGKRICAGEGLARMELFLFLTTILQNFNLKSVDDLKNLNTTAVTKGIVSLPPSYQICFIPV

Salmonella typhimurium [13] = experiment: Mutagenecity in Salmonella typhimurium TA97 in presence of metabolic activation system at 10000 ug/ml by Ames test; assay type: toxicity, organism-based; settings: salmonella enterica subsp. enterica serovar typhimurium; dose 10000 µg/ml
[14] = Clearance in rabbit at 0.81 mg/kg, iv; assay type: ADME, organism-based, Oryctolagus cuniculus; settings: in vivo
[15] = Elimination rate constant in rabbit at 0.81 mg/kg, iv; assay type: ADME, organism-based, Oryctolagus cuniculus; settings: in vivo
Salmonella typhimurium [16] = experiment: Mutagenecity in Salmonella typhimurium TA98 without metabolic activation system at 1000 ug/ml by Ames test; assay type: toxicity, organism-based; settings: salmonella enterica subsp. enterica serovar typhimurium; dose 1000 µg/ml
Salmonella typhimurium [17] = experiment: Mutagenecity in Salmonella typhimurium TA98 in presence of metabolic activation system at 10 ug/ml by Ames test; assay type: toxicity, organism-based; settings: salmonella enterica subsp. enterica serovar typhimurium; dose 10 µg/ml
[18] = Toxicity in rabbit assessed as morphological changes in heart muscle at 81 to 122 microg/kg, iv; assay type: tissue-based, Oryctolagus cuniculus; settings: in vivo, dose 81-122 µg/kg
[19] = Toxicity in rabbit assessed as pathological change in leydig cells in testes at 81 to 122 microg/kg, iv; assay type: cell-based, Oryctolagus cuniculus; settings: in vivo, dose 81-122 µg/kg
[20] = Toxicity in rat assessed as morphological changes in heart at 150 to 225 microg/kg, iv; assay type: tissue-based; settings: in vivo, dose 150-225 µg/kg
[21] = Toxicity in rabbit assessed as morphological changes in thymus at 81 to 122 microg/kg, iv; assay type: tissue-based, Oryctolagus cuniculus; settings: in vivo, dose 81-122 µg/kg
Salmonella typhimurium [22] = experiment: Mutagenecity in Salmonella typhimurium TA97 in presence of metabolic activation system at 1000 ug/ml by Ames test; assay type: toxicity, organism-based; settings: salmonella enterica subsp. enterica serovar typhimurium; dose 1000 µg/ml
[23] = Toxicity in rat assessed as morphological changes in liver at 150 to 225 microg/kg, iv; assay type: tissue-based; settings: in vivo, dose 150-225 µg/kg
[24] = Toxicity in rabbit assessed as morphological changes in gastric wall mucosa at 81 to 122 microg/kg, iv; parameters: species or system Oryctolagus cuniculus; settings: in vivo, dose 81-122 µg/kg
Salmonella typhimurium [25] = experiment: Mutagenecity in Salmonella typhimurium TA97 in presence of metabolic activation system at 10 ug/ml by Ames test; assay type: toxicity, organism-based; settings: salmonella enterica subsp. enterica serovar typhimurium; dose 10 µg/ml
[26] = Clearance in Wistar rat at 1.5 mg/kg, iv; assay type: ADME, organism-based; settings: in vivo
Salmonella typhimurium [27] = experiment: Mutagenecity in Salmonella typhimurium TA98 in presence of metabolic activation system at 100 ug/ml by Ames test; assay type: toxicity, organism-based; settings: salmonella enterica subsp. enterica serovar typhimurium; dose 100 µg/ml
Salmonella typhimurium [28] = experiment: Mutagenecity in Salmonella typhimurium TA98 in presence of metabolic activation system at 1000 ug/ml by Ames test; assay type: toxicity, organism-based; settings: salmonella enterica subsp. enterica serovar typhimurium; dose 1000 µg/ml
CWR22R [29] = experiment: Antitumor activity against human 22Rv1 cells xenografted in mouse assessed as tumour growth inhibition at 0.3 mg/kg, ip daily treated for 5 days after 18 days of tumor implantation measured upto 10 days; assay type: functional; settings: 22Rv1, ip, 120 h, time 5 day, read-out: TGI
[30] = Toxicity in rabbit assessed as morphological changes in brain gyrus at 81 to 122 microg/kg, iv; assay type: tissue-based, Oryctolagus cuniculus; settings: in vivo, dose 81-122 µg/kg
[31] = Chronic toxicity in rabbit assessed as increase in stomach weight at 5.4 microg/kg, iv; assay type: tissue-based, Oryctolagus cuniculus; settings: in vivo, 0.0054 mg/kg, dose 5.4 µg/kg
[32] = Toxicity in rat assessed as morphological changes in cerebral membrane at 150 to 225 microg/kg, iv; settings: in vivo, dose 150-225 µg/kg
Salmonella typhimurium [33] = experiment: Mutagenecity in Salmonella typhimurium TA100 without metabolic activation system at 100 ug/ml by Ames test; assay type: toxicity, organism-based; settings: salmonella enterica subsp. enterica serovar typhimurium; dose 100 µg/ml
[34] = Stability of the compound in human liver microsome; assay type: ADME; settings: microsomes
[35] = Toxicity in rabbit assessed as morphological changes in bronchi at 81 to 122 microg/kg, iv; parameters: species or system Oryctolagus cuniculus; settings: in vivo, dose 81-122 µg/kg
Cytochrome P450 2C9 = Cytochrome P450 2C9 (Homo sapiens, UniProt P11712); experiment: Inhibition of CYP2C9 in human liver microsome using tolbutamide as substrate; assay type: ADME, microsomes
[36] = Acute toxicity in iv dosed Wistar rat assessed as median mortality dose; assay type: organism-based; settings: in vivo
[37] = Toxicity in rabbit assessed as change in body weight at 0.3 mg/kg, iv measured after 20 days; assay type: organism-based, Oryctolagus cuniculus; settings: in vivo, 480 h, time 20 day
CWR22R [38] = experiment: Induction of intracellular reactive oxygen species production in human 22Rv1 cells incubated for 1 hr measured at CC50 concentration by amperometric method; assay type: functional, cell-based

Sequence of Cytochrome P450 2C9 (P11712 whole entry): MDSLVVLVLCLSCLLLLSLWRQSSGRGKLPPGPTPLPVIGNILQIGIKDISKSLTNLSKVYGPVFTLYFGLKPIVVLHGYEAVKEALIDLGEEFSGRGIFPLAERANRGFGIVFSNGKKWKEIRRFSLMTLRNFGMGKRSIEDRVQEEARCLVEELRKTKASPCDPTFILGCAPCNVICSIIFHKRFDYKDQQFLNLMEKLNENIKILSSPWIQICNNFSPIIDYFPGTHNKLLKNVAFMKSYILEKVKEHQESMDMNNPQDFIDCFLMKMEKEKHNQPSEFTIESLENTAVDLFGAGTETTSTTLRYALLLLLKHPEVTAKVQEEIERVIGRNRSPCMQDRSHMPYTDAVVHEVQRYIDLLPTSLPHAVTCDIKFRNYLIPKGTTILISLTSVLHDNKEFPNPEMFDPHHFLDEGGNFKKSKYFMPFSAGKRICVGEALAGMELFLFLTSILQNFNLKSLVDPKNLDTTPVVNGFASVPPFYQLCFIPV

For `CC[C@H](C)[C@@H]([C@@H](CC(=O)N1CCC[C@H]1[C@H](OC)[C@@H](C)C(=O)N[C@H](C)[C@@H](O)c1ccccc1)OC)N(C)C(=O)[C@@H](NC(=O)[C@H](C(C)C)N(C)C(=O)OCc1ccc(NC(=O)[C@H](CCCNC(N)=O)NC(=O)[C@@H](NC(=O)CCCc2cn(CCCNC(=O)[C@H](Cc3ccc(O)cc3)NC(=O)[C@H](Cc3ccccc3)NC(=O)CCC(=O)NCCCCCC(=O)N(CCCC[C@H](NC(=O)N[C@@H](CCC(=O)O)C(=O)O)C(=O)O)Cc3cccc(Cl)c3)nn2)C(C)C)cc1)C(C)C` ({GluureaLys(ε-3-ClBenzyl)-Ahx-Suc}-FY[X1]V[Cit][PABC][NMeV]V[Dil][Dolaproine]-X2), the MTD [1] was 4 mg/kg, the C0 [2] was 11 µg/mL and the Stability [3] was “Stable”. The Activity [4] was “Non-Toxic”, the Stability [5] was “Stable” and the Activity [6] was “Non-Toxic”. The Activity (Salmonella typhimurium [7]) was “Non-Toxic”, the Ratio [8] was 14% and the Activity (PC-3) was “Active”. The Activity [9] was “Non-Toxic”, the Activity [10] was “Non-Toxic” and the Activity (Salmonella typhimurium [11]) was “Non-Toxic”. The AUC(0-inf) [12] was 88 µg·h/mL, the IC50 (Cytochrome P450 2C8) was over 25 µM and the Activity (Salmonella typhimurium [13]) was “Non-Toxic”. For the same compound, the clearance [14] was 0.024 L/h/kg, the k el [15] was 4.72e-05 s⁻¹ and the Activity (Salmonella typhimurium [16]) was “Non-Toxic”. The Activity (Salmonella typhimurium [17]) was “Non-Toxic”, the Activity [18] was “Non-Toxic” and the Activity [19] was “Non-Toxic”. The Activity [20] was “Non-Toxic”, the Activity [21] was “Non-Toxic” and the Activity (Salmonella typhimurium [22]) was “Non-Toxic”. For the same compound, the Activity [23] was “Non-Toxic”, the Activity [24] was “Non-Toxic” and the Activity (Salmonella typhimurium [25]) was “Non-Toxic”. The clearance [26] was 0.019 L/h/kg, the Activity (Salmonella typhimurium [27]) was “Non-Toxic” and the Activity (Salmonella typhimurium [28]) was “Non-Toxic”. For the same compound, the inhibition in vivo at 0.3 mg/kg (CWR22R [29]) was 70%, the Activity [30] was “Non-Toxic” and the Activity [31] was “Toxic”. The Activity [32] was “Non-Toxic”, the Activity (Salmonella typhimurium [33]) was “Non-Toxic” and the Stability [34] was “Unstable”. The Activity [35] was “Non-Toxic”, the IC50 (Cytochrome P450 2C9) was over 25 µM and the LD50 [36] was 4.9 mg/kg and 2.2 µmol/kg. For the same compound, the Activity [37] was “Non-Toxic” and the Activity (CWR22R [38]) was “Active”.
